Structures are written as SMILES.

This note sets out measurements from US10058550B2, “Methods of treating heart failure” (priority 2015, dated 2018).

For the test, the target named is human APJ receptor (Homo sapiens (Human), UniProt P35414). The experiment in a line: biochemical. The format is biochemical. Conditions: read-out: Activity hAPJ SPA EC50 IP. In outline:
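Membranes from CHO cells stably expressing cloned human APJ were incubated with WGA SPA beads in 20 mM HEPES pH 7.5, 5 mM MgCl2, 0.1% BSA, 200 mM NaCl and 3 μM GDP. Reaction started with 0.2 nM [35S]GTPγS ± ligands, 90 min at RT. EC50 obtained by non-linear regression as mean of independent experiments.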

human APJ receptor, sequence (P35414 whole entry): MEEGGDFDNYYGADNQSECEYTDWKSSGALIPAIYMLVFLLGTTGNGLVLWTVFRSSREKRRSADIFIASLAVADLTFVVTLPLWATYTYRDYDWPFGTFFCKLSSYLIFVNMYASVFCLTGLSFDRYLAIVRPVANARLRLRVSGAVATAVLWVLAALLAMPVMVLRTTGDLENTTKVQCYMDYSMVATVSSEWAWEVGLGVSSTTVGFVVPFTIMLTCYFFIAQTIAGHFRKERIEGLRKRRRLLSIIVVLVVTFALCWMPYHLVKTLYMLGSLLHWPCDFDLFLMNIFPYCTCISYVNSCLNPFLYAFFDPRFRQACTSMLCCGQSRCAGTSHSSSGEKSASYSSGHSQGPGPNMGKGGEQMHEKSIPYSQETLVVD

Take `COc1cccc(OC)c1-n1c(NS(=O)(=O)[C@@H](C)[C@@H](C)n2cc(C)cn2)nnc1-c1cncc(C)c1` (single isomer, unassigned) [Example 652.0]: the EC50 is 0.43 nM. Regarding `CCOc1cccc(OC)c1-n1c(NS(=O)(=O)[C@@H](C)[C@H](OC)c2ncc(C)cn2)nnc1-c1cccc(OC)n1` (single isomer, unassigned) [Example 664.0, (1R,2S,P)—N-(4-(2-ethoxy-6-methoxyphenyl)-5-(6-methoxy-2-pyridinyl)-4H-1,2,4-triazol-3-yl)-1-methoxy-1-(5-methyl-2-pyrimidinyl)-2-propanesulfonamide or (1R,2S,M)-N-(4-(2-ethoxy-6-methoxyphenyl)-5-(6-methoxy-2-pyridinyl)-4H-1,2,4-triazol-3-yl)-1-methoxy-1-(5-methyl-2-pyrimidinyl)-2-propanesulfonamide], the EC50 was determined as 0.31 nM. For `COc1cnc([C@H](O)[C@@H](C)S(=O)(=O)Nc2nnc(-c3cccnc3)n2-c2c(OC)cccc2OC)cn1` (single isomer, unassigned) [Example 706.0, (1S,2R)-N-(4-(2,6-dimethoxyphenyl)-5-(3-pyridinyl)-4H-1,2,4-triazol-3-yl)-1-hydroxy-1-(5-methoxy-2-pyrazinyl)-2-propanesulfonamide or (1R,2S)-N-(4-(2,6-dimethoxyphenyl)-5-(3-pyridinyl)-4H-1,2,4-triazol-3-yl)-1-hydroxy-1-(5-methoxy-2-pyrazinyl)-2-propanesulfonamide] the value was 0.34 nM.

Consider `COc1ccnc(OC)c1-n1c(NS(=O)(=O)[C@@H](C)[C@H](OC)c2ccc(Cl)cn2)nnc1-c1cccnc1` (single isomer, unassigned) [Example 712.0], for which the EC50 was determined as 0.9 nM. For `COc1cccc(OC)c1-n1c(NS(=O)(=O)[C@@H](C)[C@H](OC)C2CCC2)nnc1-c1cncc(C)c1` (single isomer, unassigned) [Example 719.0] the value was 44 nM; for `COc1cccc(-c2nnc(NS(=O)(=O)[C@@H](C)[C@@H](O)C3CC(F)(F)C3)n2-c2c(OC)cccc2OC)n1` (single isomer, unassigned) [Example 720.0], 35 nM. For `COc1cccc(-c2nnc(NS(=O)(=O)[C@@H](C)[C@@H](O)C3CC(F)(F)C3)n2-c2c(OC)cccc2OC)n1` (single isomer, unassigned) [Example 722.0] the value was 1.7 nM.

On to `COc1cccc(-c2nnc(NS(=O)(=O)[C@@H](C)[C@@H](O)C3CC(F)(F)C3)n2-c2c(OC)cccc2OC)n1` (single isomer, unassigned) [Example 723.0], for which the EC50 is 2.5 nM.

For the compound `COc1cccc(OC)c1-n1c(NS(=O)(=O)[C@@H](C)[C@H](OC)C2CC(C)(C)C2)nnc1-c1cncc(C)c1` (single isomer, unassigned) [Example 724.0], the concentration for a half-maximal effect (EC50) came to 220 nM. Consider `COc1cccc(OC)c1-n1c(NS(=O)(=O)[C@@H](C)[C@H](OC)C2CC(C)(C)C2)nnc1-c1cncc(C)c1` (single isomer, unassigned) [Example 725.0], for which the EC50 came to 36 nM. For `COc1cccc(OC)c1-n1c(NS(=O)(=O)[C@@H](C)[C@H](OC)C2CC(C)(C)C2)nnc1-c1cncc(C)c1` (single isomer, unassigned) [Example 726.0] the value was 7.5 nM; for `COc1cccc(OC)c1-n1c(NS(=O)(=O)[C@@H](C)[C@H](OC)C2CC(C)(C)C2)nnc1-c1cncc(C)c1` (single isomer, unassigned) [Example 727.0], 200 nM; for `COc1cccc(OC)c1-n1c(NS(=O)(=O)C[C@H](O)c2ncc(C)cn2)nnc1-c1cncc(C)c1` (single isomer, unassigned) [Example 729.0, (R)—N-(4-(2,6-dimethoxyphenyl)-5-(5-methylpyridin-3-yl)-4H-1,2,4-triazol-3-yl)-2-hydroxy-2-(5-methylpyrimidin-2-yl)ethanesulfonamide or (S)—N-(4-(2,6-dimethoxyphenyl)-5-(5-methylpyridin-3-yl)-4H-1,2,4-triazol-3-yl)-2-hydroxy-2-(5-methylpyrimidin-2-yl)ethanesulfonamide], 1.5 nM. For `COc1cccc(OC)c1-n1c(NS(=O)(=O)[C@H](C)[C@@H](O)c2cn3ccccc3n2)nnc1-c1cccnc1` (single isomer, unassigned) [Example 735.0, (1S,2R)—N-(4-(2,6-dimethoxyphenyl)-5-(pyridin-3-yl)-4H-1,2,4-triazol-3-yl)-1-hydroxy-1-(imidazo[1,2-a]pyridin-2-yl)propane-2-sulfonamide or (1R,2S)—N-(4-(2,6-dimethoxyphenyl)-5-(pyridin-3-yl)-4H-1,2,4-triazol-3-yl)-1-hydroxy-1-(imidazo[1,2-a]pyridin-2-yl)propane-2-sulfonamide] the value was 0.48 nM; for `COc1cccc(OC)c1-n1c(NS(=O)(=O)[C@H](C)[C@@H](O)c2cn3ccccc3n2)nnc1-c1cccnc1` (single isomer, unassigned) [Example 736.0, (1S,2R)—N-(4-(2,6-dimethoxyphenyl)-5-(pyridin-3-yl)-4H-1,2,4-triazol-3-yl)-1-hydroxy-1-(imidazo[1,2-a]pyridin-2-yl)propane-2-sulfonamide or (1R,2S)—N-(4-(2,6-dimethoxyphenyl)-5-(pyridin-3-yl)-4H-1,2,4-triazol-3-yl)-1-hydroxy-1-(imidazo[1,2-a]pyridin-2-yl)propane-2-sulfonamide], 19 nM; for `COc1cccc(-c2nnc(NS(=O)(=O)[C@@H](C)[C@H](OC)c3ncc(C)cn3)n2-c2c(O)ncnc2OC)n1` (single isomer, unassigned) [Example 739.0, (1R,2S,M)-N-(4-(4-hydroxy-6-methoxypyrimidin-5-yl)-5-(6-methoxypyridin-2-yl)-4H-1,2,4-triazol-3-yl)-1-methoxy-1-(5-methylpyrimidin-2-yl)propane-2-sulfonamide or (1R,2S,P)-N-(4-(4-hydroxy-6-methoxypyrimidin-5-yl)-5-(6-methoxypyridin-2-yl)-4H-1,2,4-triazol-3-yl)-1-methoxy-1-(5-methylpyrimidin-2-yl)propane-2-sulfonamide], 1.5 nM. As for `COc1cccc(-c2nnc(NS(=O)(=O)[C@@H](C)[C@H](OC)c3ncc(C)cn3)n2-c2c(O)ncnc2OC)n1` (single isomer, unassigned) [Example 740.0, (1R,2S,M)-N-(4-(4-hydroxy-6-methoxypyrimidin-5-yl)-5-(6-methoxypyridin-2-yl)-4H-1,2,4-triazol-3-yl)-1-methoxy-1-(5-methylpyrimidin-2-yl)propane-2-sulfonamide or (1R,2S,P)-N-(4-(4-hydroxy-6-methoxypyrimidin-5-yl)-5-(6-methoxypyridin-2-yl)-4H-1,2,4-triazol-3-yl)-1-methoxy-1-(5-methylpyrimidin-2-yl)propane-2-sulfonamide], the EC50 was 56 nM. As to `COc1cnc([C@@H](OC(C)C)[C@@H](C)S(=O)(=O)Nc2nnc(-c3cncc(C)c3)n2-c2c(OC)cccc2OC)cn1` (single isomer, unassigned) [Example 742.0, (1R,2R)-N-(4-(2,6-dimethoxyphenyl)-5-(5-methylpyridin-3-yl)-4H-1,2,4-triazol-3-yl)-1-isopropoxy-1-(5-methoxypyrazin-2-yl)propane-2-sulfonamide or (1S,2S)-N-(4-(2,6-dimethoxyphenyl)-5-(5-methylpyridin-3-yl)-4H-1,2,4-triazol-3-yl)-1-isopropoxy-1-(5-methoxypyrazin-2-yl)propane-2-sulfonamide], the EC50 is 35 nM. As for `COc1cccc(OC)c1-n1c(NS(=O)(=O)[C@H](C)[C@H](OC(C)C)c2ccc(Cl)cn2)nnc1-c1cncc(C)c1` (single isomer, unassigned) [Example 744.0, (1R,2R)-1-(5-chloropyridin-2-yl)-N-(4-(2,6-dimethoxyphenyl)-5-(5-methylpyridin-3-yl)-4H-1,2,4-triazol-3-yl)-1-isopropoxypropane-2-sulfonamide or (1S,2S)-1-(5-chloropyridin-2-yl)-N-(4-(2,6-dimethoxyphenyl)-5-(5-methylpyridin-3-yl)-4H-1,2,4-triazol-3-yl)-1-isopropoxypropane-2-sulfonamide], the EC50 worked out at 26 nM.

`COc1cccc(OC)c1-n1c(NS(=O)(=O)[C@H](C)[C@H](OC(C)C)c2ccc(Cl)cn2)nnc1-c1cncc(C)c1` (single isomer, unassigned) [Example 745.0, (1R,2R)-1-(5-chloropyridin-2-yl)-N-(4-(2,6-dimethoxyphenyl)-5-(5-methylpyridin-3-yl)-4H-1,2,4-triazol-3-yl)-1-isopropoxypropane-2-sulfonamide or (1S,2S)-1-(5-chloropyridin-2-yl)-N-(4-(2,6-dimethoxyphenyl)-5-(5-methylpyridin-3-yl)-4H-1,2,4-triazol-3-yl)-1-isopropoxypropane-2-sulfonamide]: the EC50 is 0.4 nM. For `COc1cccc(OC)c1-n1c(NS(=O)(=O)[C@H](C)[C@H](OC(C)C)c2cnc(C)cn2)nnc1-c1cncc(C)c1` (single isomer, unassigned) [Example 746.0, (1R,2R)-N-(4-(2,6-dimethoxyphenyl)-5-(5-methylpyridin-3-yl)-4H-1,2,4-triazol-3-yl)-1-isopropoxy-1-(5-methylpyrazin-2-yl)propane-2-sulfonamide or (1S,2S)-N-(4-(2,6-dimethoxyphenyl)-5-(5-methylpyridin-3-yl)-4H-1,2,4-triazol-3-yl)-1-isopropoxy-1-(5-methylpyrazin-2-yl)propane-2-sulfonamide], the concentration giving a half-maximal response (EC50) stood at 80 nM.

`COc1cccc(OC)c1-n1c(NS(=O)(=O)[C@H](C)[C@H](OC(C)C)c2cnc(C)cn2)nnc1-c1cncc(C)c1` (single isomer, unassigned) [Example 747.0, (1R,2R)-N-(4-(2,6-dimethoxyphenyl)-5-(5-methylpyridin-3-yl)-4H-1,2,4-triazol-3-yl)-1-isopropoxy-1-(5-methylpyrazin-2-yl)propane-2-sulfonamide or (1S,2S)-N-(4-(2,6-dimethoxyphenyl)-5-(5-methylpyridin-3-yl)-4H-1,2,4-triazol-3-yl)-1-isopropoxy-1-(5-methylpyrazin-2-yl)propane-2-sulfonamide]: the EC50 was found to be 7.6 nM.

A word on the EC50: it is the concentration needed to bring the measured effect to its halfway point.
